Four molecules from patent publication US20220112204A1, “SUBSTITUTED DIHYDROPYRANOPYRIMIDINE COMPOUNDS AS KRAS INHIBITORS” (ACCUTAR BIOTECHNOLOGY INC., priority 2020, published 2022) can be followed below.

pIC50: −log10 of the molar value. Read-outs that look alike come from different tables or passages of the source.

The target of test [1] is T1, KRAS-G12C mutant (Homo sapiens, UniProt P01116, G12C). The test can be described thus: Gel shift assay (SDS-PAGE) for covalent modification of KRAS G12C. The format is binding. Particulars: 0.5 μM compound, 1 μM GDP-bound KRAS G12C, 25° C., 5 minutes, shift indicative of covalent cysteine conjugation. The procedure:
0.5 μM compounds were incubated with 1 μM GDP-bound untagged KRAS (G12C or wild type) proteins at 25° C. for 5 minutes in 40 μl reaction buffer (50 mM Tris, pH 7.5, 100 mM NaCl, 1 mM MgCl2, 1 mM DTT). The reactions were quenched with 10 μI SDS-PAGE sample loading buffer (250 mM Tris-HCl, pH 6.8, 10% SDS, 0.5% bromophenol blue, 50% glycerol and 50 mM DTT) and then analyzed via SDS-PAGE using 4%-20% gradient polyacrylamide gel followed by Coomassie blue stain.
FIG. 1 illustrates mobility change of KRAS-G12C mutant or wild type proteins on SDS-PAGE after 5 minutes of coincubation at 25° C. with exemplary compounds of the present disclosure, indicative of covalent cysteine conjugation.
Table 3 summarizes molecular weight shift of KRAS-G12C mutant on SDS-PAGE after 5 mins of coincubation at 25° C. with exemplary compounds of the present disclosure, indicative of covalent cysteine conjugation.

Test [2] deals with T1, KRAS-G12C mutant. The test is described as follows: TR-FRET assay of SOS1-assisted KRAS GDP/GTP exchange. The format is biochemical. The procedure:
GDP form of 6*His tagged KRAS-G12C was diluted to 40 nM and incubated with 8 nM LanthaScreen™ Elite Terbium-anti-HIS Antibody (Thermo, catalog number PV5863) in reaction buffer containing 20 mM Tris, pH 7.5, 100 mM NaCl, 1 mM DTT, 0.1% Tween20, 0.05% BSA, 2% DMSO, 1 mM MgCl2. After 1 hour-incubation at 4° C., proteins were placed in 384 well plate (PerkinElmer, PROXIPLATE-384 PLUS). Then compounds with different concentrations were added to the proteins. BODIPY labeled GTP (Thermo, catalog number G12411) and SOS-1 (or reaction buffer as control) were then added to reactions at 200 nM and 1 μM to trigger the exchange of GDP to BODIPY-GTP. TR-FRET emission signals were determined at 520 nm and 620 nm on a Envision® Multilabel Plate Reader (PerkinElmer) using a 337 nm laser as light source. All data were analyzed and plotted using Graph Pad Prism software (version 8.0.1). Raw TR-FRET data were converted to percentage of inhibition (relative to DMSO) using the following equations: […]
b) For a given test compound concentration X:
Signal (X)=Emission ratio (SOS-1 & GTP)—Emission ratio (buffer & GTP)
c) Percentage of inhibition at concentration X=[1−Signal(X)/Signal (DMSO)]*100%
The […] values were determined by nonlinear regression of plots of [inhibitor] vs. percentage of inhibition with variable slope. Table 4 summarizes inhibition of SOS1-assisted GDP/GTP exchanging activity of KRAS-G12C mutant with exemplary compounds of the present disclosure.
In general terms: Time-resolved FRET reads energy transfer from a long-lived donor to a nearby acceptor.

For test [3], the system named is phospho-ERK1/2 (Thr202/Tyr204) in MIA PaCa-2 cell line. The test can be described thus: pERK and ERK Western blot analysis, MIA PaCa-2. The format is cell-based. Conditions: Homo sapiens. On the procedure: MIA PaCa-2 (ATCC), NCI-H358 (ATCC), NCI-H23 (ATCC), SW837 and A549 (ATCC) cells were plated in 24-well plates at 2×10^5cells/well in RPMI growth medium containing 10% FBS and 1× Penicillin Streptomycin. They were then incubated at 37° C. overnight. The following day, the test compound was administered to the cells by using 1000× compound stock solution prepared in DMSO at various concentrations. After administration of the compound, the cells were then incubated at 37° C. for 4 hours. Upon completion, the cells were washed with PBS and protein was collected in Laemmli sample buffer (1×; VWR International). Proteins in cell lysate were separated by SDS-PAGE and transferred to Odyssey nitrocellulose membranes (Licor) with iblot® dry blotting transfer system (ThermoFisher). Nonspecific binding was blocked by incubating membranes with Intercept Blocking Buffer (Licor) for 1 hour at room temperature with gentle shaking. The membranes were then incubated overnight at 4° C. with primary antibodies rabbit anti-phospho p44/42 MAPK (Erk1/2) (1:2,000, Cell Signaling, 4370) and mouse anti-p44/42 MAPK (Erk1/2) (1:1,000, Cell Signaling, 4696) diluted in Intercept Blocking Buffer containing 0.1% Tween 20. After washing 3 times with TBS-T, the membranes were incubated with IRDye® 800CW goat anti-rabbit IgG (1:20,000, Licor) or IRDye® 680CW goat anti-mouse IgG (1:20,000, Licor) for 1 hour. After TBS-T washes, membranes were rinsed in TBS and scanned on Odyssey® CLx Imaging System (Licor). The bands were quantified using Image Studio™ Software (Licor).

A further test has as its system MIA PaCa-2 cell line. The test is described as follows: 3D cell growth assay (CellTiter-Glo), MIA PaCa-2. The format is cell-based. Particulars: Homo sapiens, MIA PaCa-2, 144 h, 6 days, read-out: 3D growth inhibition GI50. The procedure: MIA PaCa-2 (ATCC), NCI-H358 (ATCC), NCI-H23 (ATCC), SW837 and A549 (ATCC) cells were plated in round bottom 96-well spheroid microplates (Corning, 4520) at 3000 cells/well in 90 ul of RPMI growth medium containing 10% FBS and 1% Penicillin Streptomycin. Cells were incubated at 37° C. overnight. The following day, the test compound was administered to the cells by using 10× compound stock solution prepared in growth medium at various concentrations. After administration of the compound, cells were then incubated at 37° C. for 6 days. Before CellTiter-Glo assay, the plates were equilibrated at room temperature for approximately 10 minutes. 100 ul of CellTiter-Glo® Reagent (Promega, G7573) was added to each well. The plates were then incubated at room temperature for 10 minutes and luminescence was recorded by EnSpire plate reader (PerkinElmer). Table 6 illustrates growth inhibition (G150) by exemplary compounds 1-10 of the present disclosure in a MIA PaCa-2 cell line 6 days after administration in 3D cell culture. A: >0.1 nM and <1 nM; B: >=1 nM and <10 nM; C: >=10 nM and <100 nM; D: >100 nM.
In general terms: ATP-based viability assays read luminescence as a measure of living cells.

Setting [4] is: MIA PaCa-2 cell line, 4 hours after incubation, read-out: 2D pERK IC50.
Setting [5] is: MIA PaCa-2 cell line, 3D cell culture.

The pIC50 is the negative decadic logarithm of the IC50, by convention in mol/L. Usually GI50 stands for the concentration at which growth is held to half of that of the control. As to `C=C(F)C(=O)N1CCN(c2nc(OC[C@@H]3CCCN3C)nc3c2CO[C@H](c2cccc4cccc(Cl)c24)C3)C[C@@H]1CC#N` [Compound 18, 2-((S)-4-((S)-7-(8-chloronaphthalen-1-yl)-2-(((S)-1-methylpyrrolidin-2-yl)methoxy)-7,8-dihydro-5H-pyrano[4,3-d]pyrimidin-4-yl)-1-(2-fluoroacryloyl)piperazin-2-yl)acetonitrile], the “KRAS-G12C molecular weight shift” value on KRAS-G12C mutant [1] is given as “Yes”. Further, the pIC50 against KRAS-G12C mutant [2] is 7.11; in test [3] (MIA PaCa-2, MiaPaCa2, KRAS G12C, 4 hours, read-out: pERK IC50), 7.66; in test [3] (setting [4]) it was 7.00 to 8.00. For the same molecule, the 50% growth inhibitory concentration (GI50) in the test with MIA PaCa-2 cell line (setting [5]) was 1 to 10 nM; with MIA PaCa-2 cell line (MiaPaCa2, KRAS G12C, 3D) it was 7.3 nM.
For `C=C(F)C(=O)N1CCN(c2nc(OCC34CCCN3CCC4)nc3c2CO[C@H](c2cccc4cccc(C)c24)C3)C[C@@H]1CC#N` (single isomer, unassigned) [Compound 58], the “KRAS-G12C molecular weight shift” value on KRAS-G12C mutant [1] was “Yes”. For the same molecule, the results for the pIC50 (against KRAS-G12C mutant [2]; in test [3] (setting [4])) were 7.72 and 7.00 to 8.00, respectively. The GI50 with MIA PaCa-2 cell line (setting [5]) was 1 to 10 nM.
Turning to `C=C(F)C(=O)N1CCN(c2nc(OCC34CCCN3CCC4)nc3c2[C@H](C)O[C@H](c2cccc4cccc(C)c24)C3)C[C@@H]1CC#N` [Compound 66, 2-((S)-1-(2-fluoroacryloyl)-4-((5S,7S)-5-methyl-7-(8-methylnaphthalen-1-yl)-2-((tetrahydro-1H-pyrrolizin-7a(5H)-yl)methoxy)-7,8-dihydro-5H-pyrano[4,3-d]pyrimidin-4-yl)piperazin-2-yl)acetonitrile], at KRAS-G12C mutant [1], the “KRAS-G12C molecular weight shift” value is listed as “Yes”. The pIC50 was 7.52 against KRAS-G12C mutant [2] and 7.00 to 8.00 in test [3] (setting [4]). Besides, the GI50 with MIA PaCa-2 cell line (setting [5]) lay in the range of 1 to 10 nM.
Regarding `C=C(F)C(=O)N1CCN(c2nc(OCC34CCCN3CCC4)nc3c2COC(c2cccc4cccc(C)c24)C3)C[C@@H]1CC#N` (stereo partly drawn) [Compound 56, 2-((2S)-1-(2-fluoroacryloyl)-4-(7-(8-methylnaphthalen-1-yl)-2-((tetrahydro-1H-pyrrolizin-7a(5H)-yl)methoxy)-7,8-dihydro-5H-pyrano[4,3-d]pyrimidin-4-yl)piperazin-2-yl)acetonitrile], at KRAS-G12C mutant [1], the “KRAS-G12C molecular weight shift” value was “Yes”. The pIC50 was 7.15 against KRAS-G12C mutant [2] and 7.00 to 8.00 in test [3] (setting [4]). Also, the GI50 in the test on MIA PaCa-2 cell line (setting [5]) was 1 to 10 nM.
